# Data published in US20190178889A1, “HIGH-THROUGHPUT SCREENING ASSAY” (BellBrook Labs, priority 2016, published 2019).
# How the values were obtained:
# [1] = test system: mouse antiserum (cGAMP antibody); experiment: FP binding of mouse antiserum to fluorescein-cGAMP tracer with competitor nucleotides; conditions: competitor 10 μM, tracer 4 nM
# [2] = test system: cGAMP mAb6; experiment: competitive FP immunoassay, cGAMP mAb6 with cGAMP-Atto 633 tracer; format: binding, mouse; conditions: for binding to mAb6: ATP and GTP at more than 10^4-fold excess over half-maximal cGAMP concentration
# Source text: Importantly, neither of these other cyclic dinucleotides are known to be endogenous in mammalian cells.
# [3] = target: T1, full length human cGAS (Homo sapiens, UniProt Q8N884); experiment: cGAS enzyme assay with cGAMP FP detection; format: biochemical; parameters: Assays using highly purified, full length human cGAS were performed; 6xHis; made in house; host or cells: E. coli BL21 DE3 (Rosetta DE3, Novagen), T7 expression vector
# T1 sequence (Q8N884 whole entry): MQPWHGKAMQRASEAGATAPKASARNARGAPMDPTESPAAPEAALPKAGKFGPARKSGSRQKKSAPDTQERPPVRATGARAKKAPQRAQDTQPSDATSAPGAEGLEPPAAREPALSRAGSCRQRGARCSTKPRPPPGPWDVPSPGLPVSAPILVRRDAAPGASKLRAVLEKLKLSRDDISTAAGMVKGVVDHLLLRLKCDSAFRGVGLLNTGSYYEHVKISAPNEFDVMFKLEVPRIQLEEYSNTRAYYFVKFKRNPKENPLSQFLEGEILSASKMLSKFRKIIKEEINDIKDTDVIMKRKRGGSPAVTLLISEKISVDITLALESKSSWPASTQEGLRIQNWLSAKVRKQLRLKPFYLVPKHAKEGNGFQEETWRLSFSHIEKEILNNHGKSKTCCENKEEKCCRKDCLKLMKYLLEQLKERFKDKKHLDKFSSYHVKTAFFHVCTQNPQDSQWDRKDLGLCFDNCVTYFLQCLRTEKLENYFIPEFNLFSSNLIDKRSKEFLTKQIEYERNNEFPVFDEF
# Experimental: FIG. 9 includes A) a plot showing detection of purified, full-length cGAS: cGAS enzyme titrations show a dose-dependent assay signal, as discussed in more detail in Example 2, below; N- and C-terminal His-tagged cGAS was prepared according to Example 4 (100 μM ATP and GTP, 62.5 nM 45 bp ISD DNA, 60 min reactions); […]; C) Confirmation that recombinant hcGAS was activated by ds DNA; half maximal responses of 3.5 and 5.9 nM for HSV 60 and ISD 45, respectively; D) ATP and GTP dependence: ATP and GTP were titrated separately and simultaneously; half maximal cGAS activity at 80 μM of both nucleotide; E) Dose response for cGAS inhibition by two flavonoids; F) a plot showing the results of an interference screen: the library of 1280 pharmacologically active compounds, available from Sigma (the “LOPAC library”) was used to test for compound interference with detection reagents as discussed in more detail in Example 2, below; wells contained all cGAS enzyme reaction components except the cGAS enzyme; positive controls contained 1 μM cGAMP, negative controls contained no cGAMP; […]; negative controls lacked dsDNA required for cGAS activation; H) an image of a coomassie blue stained SDS gel (top) and western blot (bottom) of purified 6×HIS-cGAS (Lane 1) and cGAS-6×His (Lane 2) prepared according to Example 4; Z=0.62, Z′=0.7.
# cGAS is one of four oligoadenylate synthases, nucleic acid sensors that activate innate immunity via production of short, 2′-5′ oligoadenylate secondary messengers (35); […]. Binding of dsDNA and DNA:RNA hybrids to cGAS induces a conformational transition in an activation loop, not unlike the displacement of inhibitory domains by autophosphorylation in protein kinases (Zhang, et al., 2014, Cell Rep 6(3):421-30; Fabbro, et al., 2012, Methods Mol Biol 795:1-34). The full-length enzyme was used to insure that all of the potential allosteric sites were present and that the enzyme was able to sample its full conformational repertoire. Prior to running cGAS enzyme reactions, the effect of cGAS reaction components, including ATP and GTP Brij 35, NaCl, Brij 35, and dsDNA on the detection reagents was examined; no significant effects were observed. Assays using highly purified, full length human cGAS were performed. The full-length human cGAS was prepared according to Example 4, below. Additionally, third-party-provided cGAS (Sun, et al., 2013, Science 339(6121):786-91) was used for comparative purposes. Some enzyme assays were run in kinetic mode; i.e., the detection reagents were present during the enzyme reactions, and the plates were read periodically, and others were run in endpoint mode, using EDTA to quench the reaction.
# . The enzyme data was graphed as the net change in polarization; […]. Conversion of polarization to cGAMP formation using a standard curve confirmed that product formation was linear with cGAS concentration (FIG. 9B); […]. There was essentially no quantitative activity data available for cGAS prior to the instant disclosure and the kcat values of approximately 1 min^−1 determined herein (at non-saturating ATP and GTP) were the first reported cGAS kinetic parameters. The generation of a good signal (i.e., ≥100 mP) with less than 10 nM cGAS is important for two reasons. It reduces the time and cost to prepare for a large screen by minimizing enzyme usage; for example, screening 1M (one million) compounds at 10 nM cGAS will require only 12 mg of enzyme. […]
# [4] = target: scFvs against haptens; conditions: affinity-matured scFvs, yeast display; read-out: Kds of scFvs; cited from earlier work
# [5] = target: T1, full length human cGAS; experiment: cGAS enzyme assay with cGAMP TR-FRET detection
# [6] = both nucleotides combined (titrated simultaneously), read-out: half maximal concentration of ATP and GTP for cGAS activity
compound,measurement,setting,value
"Nc1nc2c(ncn2[C@@H]2O[C@@H]3COP(=O)(O)O[C@H]4[C@@H](O)[C@H](n5cnc6c(N)ncnc65)O[C@@H]4COP(=O)(O)O[C@@H]2[C@@H]3O)c(=O)[nH]1 [2′,3′ cGAMP, G(2′-5′)pA(3′-5′)p]",effect of excess competitor on antiserum/tracer binding curve,[1],right-shifted by approximately two orders of magnitude
same,polarization shift,"[2]; at 500 nM cGAMP, 0.5-0.6 μg/ml mAb6",approximately 130 mP
"Nc1nc2c(ncn2C2OC3COP(=O)(O)OC4C(O)C(COP(=O)(O)OC3C2O)OC4n2cnc3c(=O)[nH]c(N)nc32)c(=O)[nH]1 (stereo not drawn) [2′,3′ cyclic di-GMP]",IC50,"[2]; FP competition curves, FIG. 8E, read-out: 1050 values (competition, displacement of tracer from mAb6)",250 nM
"Nc1nc2c(ncn2[C@@H]2O[C@@H]3COP(=O)(O)O[C@H]4[C@@H](O)[C@H](n5cnc6c(N)ncnc65)O[C@@H]4COP(=O)(O)O[C@H]3[C@H]2O)c(=O)[nH]1 [3′,3′ cGAMP]",binding to mAb6,"[2]; FP competition curves, FIG. 8E",did not bind
Nc1ncnc2c1ncn2[C@@H]1O[C@H](COP(=O)(O)OP(=O)(O)O)[C@@H](O)[C@H]1O [ADP],binding to mAb6,"[2]; FP competition curves, FIG. 8E",lack of binding
Nc1ncnc2c1ncn2[C@@H]1O[C@H](COP(=O)(O)OP(=O)(O)OP(=O)(O)O)[C@@H](O)[C@H]1O [ATP],EC50,[3]; [6],80000 nM
same,effect of excess competitor on antiserum/tracer binding curve,[1],no effect
same,binding to mAb6,"[2]; FP competition curves, FIG. 8E",no detectable binding
O=C(O)CN1CCN(CC(=O)O)CCN(CC(=O)O)CCN(CC(=O)O)CC1 [DOTA],Kd,[4],0.0082 nM
Nc1nc2c(ncn2[C@@H]2O[C@H](COP(=O)(O)OP(=O)(O)OP(=O)(O)O)[C@@H](O)[C@H]2O)c(=O)[nH]1 [GTP],EC50,[3]; [6],80000 nM
same,effect of excess competitor on antiserum/tracer binding curve,[1],no effect
same,binding to mAb6,"[2]; FP competition curves, FIG. 8E",no detectable binding
Nc1nc2c(ncn2[C@@H]2O[C@@H]3COP(=O)(O)O[C@H]3[C@H]2O)c(=O)[nH]1 [cGMP],binding to mAb6,"[2]; FP competition curves, FIG. 8E",lack of binding
cGAS-His: full-length human cGAS having a 6×His at the C-terminus,Kcat,[3]; determined by FP,1.21
same,Kcat,[5]; determined by TR-FRET,1.58
"cGAS: highly purified, full length human cyclic GMP-AMP synthase",EC50,"[3]; FP assay, depending on the preparation, 100 μM ATP and GTP, 62.5 nM 45 bp ISD DNA, 60 min, read-out: half-maximal change (EC50) of polarization, cGAS enzyme titration",6 to 12 nM
same,Kcat,"[3]; cGAMP FP assay, non-saturating ATP and GTP",approximately 1 min^−1
same,EC50,"[5]; read-out: EC50, cGAS enzyme titration, TR-FRET assay, FIG. 10E",~5 nM
